From ChEMBL document CHEMBL1201862, “PubChem BioAssay data set” (2004)
Calls of active or inactive are those of the source.

How the values were obtained:
Type in all cases: functional
[1] = target: T1, Sentrin-specific protease 7 (Homo sapiens, UniProt Q9BQF6);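 note: Luminescence-based dose-response confirmation of ultra-high-throughput screening hits, measuring inhibition of SENP7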
T1 sequence (Q9BQF6 whole entry): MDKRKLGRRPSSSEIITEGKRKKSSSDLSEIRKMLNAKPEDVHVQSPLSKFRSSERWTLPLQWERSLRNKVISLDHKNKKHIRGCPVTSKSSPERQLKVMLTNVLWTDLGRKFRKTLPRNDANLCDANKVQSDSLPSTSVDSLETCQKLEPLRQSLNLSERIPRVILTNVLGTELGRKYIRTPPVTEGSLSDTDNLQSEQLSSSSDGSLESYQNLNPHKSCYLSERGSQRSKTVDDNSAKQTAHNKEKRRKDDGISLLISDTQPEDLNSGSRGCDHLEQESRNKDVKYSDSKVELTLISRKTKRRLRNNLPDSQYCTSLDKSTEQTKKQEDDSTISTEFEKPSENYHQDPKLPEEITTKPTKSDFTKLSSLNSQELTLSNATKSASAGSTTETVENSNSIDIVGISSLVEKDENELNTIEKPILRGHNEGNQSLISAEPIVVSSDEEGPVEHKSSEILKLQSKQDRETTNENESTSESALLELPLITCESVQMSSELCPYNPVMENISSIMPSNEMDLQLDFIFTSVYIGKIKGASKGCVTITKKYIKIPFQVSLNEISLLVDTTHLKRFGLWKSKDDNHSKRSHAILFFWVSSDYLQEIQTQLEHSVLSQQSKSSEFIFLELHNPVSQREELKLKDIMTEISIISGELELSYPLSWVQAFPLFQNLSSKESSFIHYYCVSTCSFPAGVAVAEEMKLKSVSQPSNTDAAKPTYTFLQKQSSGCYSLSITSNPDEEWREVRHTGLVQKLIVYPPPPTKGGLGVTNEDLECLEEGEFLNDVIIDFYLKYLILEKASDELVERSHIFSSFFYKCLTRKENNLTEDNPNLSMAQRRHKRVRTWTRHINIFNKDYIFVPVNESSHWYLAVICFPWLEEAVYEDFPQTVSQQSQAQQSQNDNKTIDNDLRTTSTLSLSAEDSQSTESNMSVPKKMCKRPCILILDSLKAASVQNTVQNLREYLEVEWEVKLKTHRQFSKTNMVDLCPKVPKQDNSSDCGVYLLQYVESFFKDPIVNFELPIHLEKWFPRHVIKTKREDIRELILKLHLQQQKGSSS

Hexokinase HKDC1 = target: T2, Hexokinase HKDC1 (Homo sapiens, UniProt Q2TB90); test: inhibition of HKDC1 glucose phosphorylation – biochemical, W721R variant, dose response (AID 504729)
T2 sequence (Q2TB90 whole entry): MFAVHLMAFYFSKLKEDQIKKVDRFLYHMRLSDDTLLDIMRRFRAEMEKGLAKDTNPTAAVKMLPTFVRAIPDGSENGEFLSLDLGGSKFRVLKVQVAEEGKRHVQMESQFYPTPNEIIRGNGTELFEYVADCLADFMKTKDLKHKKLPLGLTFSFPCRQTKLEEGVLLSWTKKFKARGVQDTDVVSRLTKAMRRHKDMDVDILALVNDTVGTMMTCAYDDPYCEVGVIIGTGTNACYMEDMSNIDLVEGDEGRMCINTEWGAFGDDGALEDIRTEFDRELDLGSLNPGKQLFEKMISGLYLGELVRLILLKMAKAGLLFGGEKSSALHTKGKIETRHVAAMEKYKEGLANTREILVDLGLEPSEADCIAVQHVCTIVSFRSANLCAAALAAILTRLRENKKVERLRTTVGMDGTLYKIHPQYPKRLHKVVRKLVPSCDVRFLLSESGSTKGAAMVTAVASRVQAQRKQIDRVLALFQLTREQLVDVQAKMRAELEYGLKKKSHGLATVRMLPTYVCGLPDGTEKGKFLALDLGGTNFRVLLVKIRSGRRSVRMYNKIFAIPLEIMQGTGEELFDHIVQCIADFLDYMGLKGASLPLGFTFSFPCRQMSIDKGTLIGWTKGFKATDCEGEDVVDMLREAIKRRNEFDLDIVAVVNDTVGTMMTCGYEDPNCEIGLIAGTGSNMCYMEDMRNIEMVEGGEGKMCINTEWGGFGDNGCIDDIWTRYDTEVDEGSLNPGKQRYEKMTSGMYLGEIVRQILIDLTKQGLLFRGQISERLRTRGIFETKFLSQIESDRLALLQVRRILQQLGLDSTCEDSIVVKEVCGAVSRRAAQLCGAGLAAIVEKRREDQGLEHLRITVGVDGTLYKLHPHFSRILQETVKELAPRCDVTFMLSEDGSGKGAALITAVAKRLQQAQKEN

[2] = target: T3, Replicative DNA helicase DnaB (Mycobacterium tuberculosis, UniProt P9WMR3); test: DnaB intein splicing inhibitors, dose response, biochemical, cell-free fluorescence (AID 449749)
T3 sequence (P9WMR3 whole entry): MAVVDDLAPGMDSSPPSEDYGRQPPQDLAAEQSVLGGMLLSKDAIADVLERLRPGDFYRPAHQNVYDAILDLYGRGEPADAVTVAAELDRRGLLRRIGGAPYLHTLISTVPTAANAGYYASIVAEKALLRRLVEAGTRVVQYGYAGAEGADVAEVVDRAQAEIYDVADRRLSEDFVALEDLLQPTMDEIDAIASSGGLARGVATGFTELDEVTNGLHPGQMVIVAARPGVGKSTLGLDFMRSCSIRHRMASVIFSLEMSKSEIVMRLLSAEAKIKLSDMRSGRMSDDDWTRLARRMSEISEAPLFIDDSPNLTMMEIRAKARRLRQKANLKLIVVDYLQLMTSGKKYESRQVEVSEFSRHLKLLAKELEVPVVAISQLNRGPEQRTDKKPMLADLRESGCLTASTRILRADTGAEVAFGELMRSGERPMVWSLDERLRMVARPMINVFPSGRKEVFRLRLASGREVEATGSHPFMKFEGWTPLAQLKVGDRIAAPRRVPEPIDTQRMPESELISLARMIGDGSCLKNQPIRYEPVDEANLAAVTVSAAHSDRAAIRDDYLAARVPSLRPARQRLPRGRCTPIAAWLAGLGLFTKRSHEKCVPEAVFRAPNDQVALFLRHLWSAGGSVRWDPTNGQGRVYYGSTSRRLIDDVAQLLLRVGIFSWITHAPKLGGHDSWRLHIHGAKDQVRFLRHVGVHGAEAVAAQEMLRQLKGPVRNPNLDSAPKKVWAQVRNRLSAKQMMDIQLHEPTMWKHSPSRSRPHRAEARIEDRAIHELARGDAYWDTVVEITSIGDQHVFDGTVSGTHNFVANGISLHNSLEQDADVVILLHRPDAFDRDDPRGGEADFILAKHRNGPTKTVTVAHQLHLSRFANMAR

NC(=O)C1CCN(C2=C(Cl)C(=O)c3ccccc3C2=O)CC1
IC50 [1]: 17.8 µM (active)
IC50 (Hexokinase HKDC1): 25.9 µM (inactive)
AC50 [2]: 0.617 µM (active)

O=C(O)c1ccc(N/N=C/c2ccc(OC(=O)c3ccccc3Cl)cc2)cc1
IC50 [1]: 3.74 µM (active)

O=c1c2ccccc2nc(/C=C/c2cccnc2)n1Cc1ccccc1
IC50 (Hexokinase HKDC1): 3.2 µM (active)
AC50 [2]: 9.28 µM (active)

COC(=O)c1ccccc1NC1=C/C(=N\S(=O)(=O)c2ccc(C(=O)O)cc2)c2ccccc2C1=O
IC50 (Hexokinase HKDC1): 3.84 µM (active)
AC50 [2]: > 380 µM (inconclusive)
